Experimental data: US20180022734A1 (Sound Biopharmaceuticals Ltd., priority 2015, published 2018)

Experiments:
[1] = Pharmacokinetics and organ distribution after intravenous administration of Sunitinib, Compound 1 and Compound 2 in mice; set-up: AUCiv: unit not given beside the values; details: mice
Excerpt: Relative Exposure(RE)=AUCi sample/AUCi control
AUCi—area under curve for the i^th organ or tissue; RE>1 indicates targeting at the organ or tissue, with larger RE indicating greater targeting; RE≦1 indicates non-targeting.
RTE refers to the multiple of the percent of drug content in a tissue of sample group with respect to total drug amount in the body vs. that in a control group. Positive RTE values indicate enhanced targeting effects and the more positive the more the multiple of enhancement and the more the enhanced targeting. In contrast, negative RTE values indicate reduced targeting effects. Value 0 indicate no influence to the tissue.
0.083 h, 0.25 h, 0.5 h, 1 h, 3 h, 8 h post injection, blood was taken by eyeball removal and the mice were sacrificed by cervical dislocation. Tissues were perfused with normal saline and livers and kidneys were removed and cleaned with normal saline. The blood samples were centrifuged to obtain supernatants and stored at −20° C. 50 μL plasma sample and 50 μL internal standard (clozapine) working solution was vortexed with 300 μL MeOH and then centrifuged. 150 μL upper organic phase was obtained and mixed with 150 μL water, followed by centrifugation. 10 μL supernatant was sampled for analysis. The tissue samples were weighted and mixed homogeneously with 10 times weight of water. Since the samples were 10-time diluted, the concentration of the tissue would be 10 times the results determined. The heart tissue was 5-time diluted. 100 μL homogenate was mixed with 50 μL internal standard (clozapine) working solution and 300 μL MeOH and then centrifuged. 150 μL upper organic phase was obtained and mixed with 150 μL water, followed by centrifugation. 10 μL supernatant was sampled for analysis.

[2] = Oral route (intragastric gavage) study of Sunitinib and compounds 1 and 2 in mice; type: in vivo; set-up: AUCpo: unit not given beside the values; details: mice, intragastric gavage
Excerpt: Animal experiments: 24 mice in each group were divided into 8 sub-groups.

[3] = Stability of compounds 1 and 2 in MeOH stock solution and with biomass; type: physicochemical
Excerpt: No prodrug was detected in organs except for spleen during processing. […] The prodrugs may be converted to Sunitinib or other metabolite during processing or in vivo.

[4] = test system: pSTAT3; experiment: Effects on STAT3 phosphorylation in A549 cell line; type: cell-based, human; details: 10 μM
Method: (§1) For in vitro tests, compounds were directly dissolved in 10 mM DMSO and stored at −20° C. For in vivo tests, the compounds were dissolved in DMSO and neutralized by Tween 80 (DMSO:Tween=1:1) and further neutralized by PBS (pH 7.4). The final concentrations of DMSO and Tween-80 were 5%.

[5] = test system: A549; NCI-H460; 786-O; Caki-1; HT-29; MCF-7; experiment: 72 hour cytotoxicity (CCK8) in different cell lines; type: cell-based, human; details: 72 hours, CCK8; FIG. 5a-f
Excerpt: A549 human non-small cell lung cancer cell line, NCI-H460 human non-small cell lung cancer cell line, 786-O human renal cell line, Caki-1 human renal cell line, HT-29 human colon cancer cell line, MDA-MB-231 human breast cancer cell line, and MCF-7 human breast cancer cell line was purchased from Chinese Academy of Science Shanghai Branch. PLC/PRF-5 human hepatoma cell line and Hepal-6 mouse hepatoma cell line were obtained from Institute of Biochemistry and Cell Biology, SIBS, CAS (SIBCB). Cell lines A549, Caki-1, HT-29, MDA-MB-231, MCF-7, PLC/PRF-5 and Hepal-6 were cultured in DMEM medium (Gibco, Life Technologies, China) and cell lines NCI-H460 and 786-O were cultured in RPMI-1640 medium (Gibco, Life Technologies, China). 10% HI fetal bovine serum was purchased from Gibco, Life Technologies, USA and 1% penicillin/streptomycin was obtained from Hyclone.
Approx. 2,000 cells in 50 μL complete medium were plated on each well of a 96-well plate and incubated at 37° C., 5% CO2 overnight. Drugs at concentrations of 0.02 to 10 μM were dissolved in 0.1% DMSO, followed by addition into each well. After incubation for 72 hours, 10 μL CCK8 (Dojindo) was added into each well, followed by incubation at 37° C. for another 4 hours. The OD values were obtained by TECAN Microplate Reader at 450 nm.
as §1

[6] = test system: 786-O cell or A549 cell; experiment: Cell morphology and survival rate after 4 to 8 hours incubation; type: cell-based, human
[7] = Acute toxicity test: maximum tolerance dosage (MTD) determination; type: in vivo, BALB/c mice
Method: Methods: Femal BALB/c mice, 4-5 weeks old, weighted greater than 17 g, were used for the test. […] The body weights and conditions of the mice were recorded.
In contrast, the body weights of mice in compound 2 group increased 6.0% in average.
To further explore the toxicity of the compounds, blood was collected after 14-day treatment of drugs and critical biochemical index were analyzed.

[8] = test system: cancer cell xenograft; experiment: Pharmacodynamic tests on mice xenograft transplantation model; type: in vivo
Method: as §1
5×10^6 cancer cells were subcutaneously injected to the right side of mouse. Drug was intraperitoneally injected at dosages of 1.5 mg/kg, 7.5 mg/kg, 30 mg/kg to the mice, once a day, for 2 weeks when average tumor size reached 75 to 150 mm^3. The size of the tumor was measured every other day. […] Compound 1 had less efficacy.
We then performed the test through oral route. 5×10^6 cancer cells were subcutaneously injected to the right side of mouse. Drug was orally administered at dosages of 5 mg/kg, 15 mg/kg, 45 mg/kg to the mice, once a day, for 2 weeks when average tumor size reached 75 to 150 mm^3. The size of the tumor was measured every other day.

[9] = 5.13 mg/kg Compound 1, 5.32 mg/kg Compound 2, 5.14 mg/kg Sunitinib malate, All (sum of organs and plasma)
[10] = 5.13 mg/kg Compound 1, 5.32 mg/kg Compound 2, 5.14 mg/kg Sunitinib malate, heart
[11] = 5.13 mg/kg Compound 1, 5.32 mg/kg Compound 2, 5.14 mg/kg Sunitinib malate, kidney
[12] = 5.13 mg/kg Compound 1, 5.32 mg/kg Compound 2, 5.14 mg/kg Sunitinib malate, liver
[13] = 5.13 mg/kg Compound 1, 5.32 mg/kg Compound 2, 5.14 mg/kg Sunitinib malate, lung
[14] = 5.13 mg/kg Compound 1, 5.32 mg/kg Compound 2, 5.14 mg/kg Sunitinib malate, plasma
[15] = 5.13 mg/kg Compound 1, 5.32 mg/kg Compound 2, 5.14 mg/kg Sunitinib malate, spleen
[16] = 19.248 mg/kg Compound 1, 20 mg/kg Compound 2, 20 mg/kg Sunitinib malate
[17] = oral once a day for 14 days, 175 mg/kg
[18] = repeated test, oral once a day, 200 mg/kg

CCN(CC)CCNC(=O)c1c(C)[nH]c(C=C2C(=O)N(CC(=O)Oc3ccccc3)c3ccc(F)cc32)c1C [Compound 2, N-[2-(diethylamino)ethyl]-5-[(5-fluoro-2-oxo-1-(phenylcarboxymethyl)-2,3-indolin-3-ylmethylene)]-2,4-dimethyl-1H-pyrrolidine-3-carboxamide]
AUC [1, 9]: 3926.9 ng·h/mL | Cmax [1, 9]: 2673.1 ng/mL | AUC [1, 10]: 97.0 ng·h/mL | Cmax [1, 10]: 122.4 ng/mL | AUC [1, 11]: 474.2 ng·h/mL | Cmax [1, 11]: 258.0 ng/mL | AUC [1, 12]: 1047.1 ng·h/mL | Cmax [1, 12]: 742.7 ng/mL | AUC [1, 13]: 1235.0 ng·h/mL | Cmax [1, 13]: 763.8 ng/mL | AUC [1, 14]: 408.8 ng·h/mL | AUCall [1, 14]: 408.8 ng·h/mL | Cl [1, 14]: 324.9 mL/h | Cmax [1, 14]: 564.4 ng/mL | Tmax [1, 14]: 4.8 min | V [1, 14]: 406.1 mL | AUC [1, 15]: 664.8 ng·h/mL | Cmax [1, 15]: 221.8 ng/mL | AUCiv ([1]; Div 3.86, in ng·h/mL): 408.8 | Cmax, times than that of the control ([1]; control = Sunitinib): approx. 5 times | RTE analysis: distribution proportions in organs ([1]; vs Sunitinib control): increased distribution proportions in spleen and lung, decreased proportions in heart and kidney but great enhancement in plasma | RE ([1]; vs Sunitinib control, heart): 0.13 | RTE ([1]; vs Sunitinib control, heart): −0.55 | RE ([1]; vs Sunitinib control, kidney): 0.16 | RTE ([1]; vs Sunitinib control, kidney): −0.45 | RE ([1]; vs Sunitinib control, liver): 0.47 | RTE ([1]; vs Sunitinib control, liver): 0.66 | RE ([1]; vs Sunitinib control, lung): 0.28 | RTE ([1]; vs Sunitinib control, lung): −0.01 | RE ([1]; vs Sunitinib control, plasma): 1.12 | RTE ([1]; vs Sunitinib control, plasma): 2.93 | RE ([1]; vs Sunitinib control, spleen): 0.22 | RTE ([1]; vs Sunitinib control, spleen): −0.23 | AUC, times higher than Sunitinib [2]: approx. 3.5 times | AUC0→∞ [2, 16]: 61.5 ng·h/mL | Cl [2, 16]: 4094.7 mL/h | Cmax [2, 16]: 27.00 ng/mL | Tmax [2, 16]: 1.50 h | t1/2 [2, 16]: 3.89 h | AUCpo ([2]; Dpo 15.00, in ng·h/mL): 951.1 | stability in the event of coexisting with biomass ([3]; coexisting with biomass): easy to degrade | stability in MeOH stock solution ([3]; stability test period: 7 days): stable | inhibition of pSTAT3 [4]: strong inhibition | IC50 values among several cell lines [5]: comparable | tumor killing effects / cytotoxicity [5]: relatively strong tumor killing effects | cell survival ([6]; 786-O cell or A549 cell, incubated for 8 hours): mass cell death | cell morphology ([6]; cancer cells incubated for 4 hours): changed to round and suffered from stress | critical biochemical index (AST, ALT, CHE, urate, blood urea nitrogen, glucose, LDH, CK, CKMB) ([7]; blood after 14-day treatment, 200 mg/kg): except for AST and ALT, these indices were all within normal ranges | body weights increased in average [7, 17]: 6.0% | condition of the mice [7, 17]: performed similarly with negative control group | influence on body weight ([7]; repeated test, oral once a day, 100 mg/kg): little influence on body weight | body weights increased in average [7, 18]: 6.0% | condition of the mice [7, 18]: performed similarly with negative control group | efficacy on tumor size ([8]; intraperitoneally injected 1.5, 7.5, 30 mg/kg once a day for 2 weeks): improved efficacy than Sunitinib | efficacy on tumor size ([8]; orally administered 5, 15, 45 mg/kg once a day for 2 weeks): improved efficacy than Sunitinib
